The record followed here is patent publication US7179806B2, “Δ1-pyrrolines used as pesticides” (Bayer Cropscience AG, priority 2000, dated 2007).

SMILES strings stand for the structures.

Data set [1] concerns army worm (Spodoptera exigua) caterpillars. The experiment in a line: Spodoptera exigua test (cabbage leaves dipped). In kind it is in vivo. The method, then:
(§1) Spodoptera Exigua Test To produce a suitable preparation of active compound, 1 part by weight of active compound is mixed with the stated amounts of solvent and emulsifier, and the concentrate is diluted with emulsifier-containing water to the desired concentration. Cabbage leaves (Brassica oleracea) are treated by being dipped into the preparation of active compound of the desired concentration and are populated with army worm (Spodoptera exigua) caterpillars whilst the leaves are still moist. After the desired period of time, the kill in % is determined. 100% means that all caterpillars have been killed; 0% means that none of the caterpillars have been killed.

Data set [2] relates to larvae of the mustard beetle (Phaedon cochleariae). The experiment in a line: Phaedon larvae test (cabbage leaves dipped). The note with it: active compound concentration 1000 ppm. The class given is in vivo. The method, then: as §1, with “Phaedon Larvae” for “Spodoptera Exigua”, “larvae of the mustard beetle (Phaedon cochleariae)” for “army worm (Spodoptera exigua) caterpillars”, “beetle larvae” for “caterpillars”

The test system of data set [3] is army worm (Spodoptera frugiperda) caterpillars. The experiment in a line: Spodoptera frugiperda test (cabbage leaves dipped). In kind it is in vivo. The note with it: 168 h, after 7 d, read-out: Kill rate in % after 7 d; for pest or weed control at 500 ppm: active compound concentration 500 ppm; for pest or weed control at 1000 ppm: active compound concentration 1000 ppm. The method, then: as §1, with “frugiperda” for “Exigua”, “frugiperda)” for “exigua)”

Data set [4] deals with greenhouse red spider mite (tetranychus urticae). In words: Tetranychus test (OP-resistant/dip treatment). In kind it is in vivo. Conditions: active compound concentration 100 ppm, OP-resistant, dip treatment. The method, then: Tetranychus Test (OP Resistant/Dip Treatment)
To produce a suitable preparation of active compound, 1 part by weight of active compound is mixed with the stated amounts of solvent and emulsifier, and the concentrate is diluted with emulsifier-containing water to the desired concentration.
Bean plants (Phaseolus vulgaris) which are heavily infested by all stages of the greenhouse red spider mite (tetranychus urticae) are dipped into a preparation of active compound of the desired concentration.
After the desired period of time, the effect in % is determined. 100% means that all spider mites have been killed; 0% means that none of the spider mites have been killed.

The test system of data set [5] is Heliothis virescens caterpillars. The experiment in a line: Heliothis virescens test (soya bean shoots dipped). In kind it is in vivo. The protocol:
as §1, with “Heliothis Virescens” for “Spodoptera Exigua”, “Soya bean shoots (Glycine max)” for “Cabbage leaves (Brassica oleracea)”, “Heliothis virescens” for “army worm (Spodoptera exigua)”

Data set [6] can be described thus: log P determination by HPLC (reversed-phase C18, EEC Directive 79/831 Annex V.A8). The class given is physicochemical. The note with it: reversed-phase C18 HPLC column, pH 2.3, pH 2.3, 0.1% aqueous phosphoric acid/acetonitrile gradient, 43° C. From the text: Mobile phases for determination in the acidic range: 0.1% aqueous phosphoric acid, acetonitrile; linear gradient from 10% acetonitrile to 90% acetonitrile.

Where [7] appears, read: active compound concentration 500 ppm.
[8] abbreviates: active compound concentration 40 ppm.

With `Fc1cccc(F)c1C1=NC(c2ccc(-c3ccc(N4CCOCC4)nc3)cc2)CC1` (stereo not drawn) [drawing 279], the “Kill rate in % after 7 d” value in data set [1] (active compound concentration 1000 ppm) was 100%. Regarding `Fc1cccc(F)c1C1=NC(c2ccc(-c3ccc(C(F)(F)F)cn3)cc2)CC1` (stereo not drawn) [drawing 271], the “Kill rate in % after 7 d” value in data set [2] is listed as 100%. For the compound `CN(c1ccc(-c2ccc(C3CCC(c4c(F)cccc4F)=N3)cc2)nn1)S(=O)(=O)C(F)(F)F` (stereo not drawn) [drawing 286], the pest or weed control at 500 ppm in data set [3] turned out to be 100%. With `CN(C)c1ncc(-c2ccc(C3CCC(c4c(F)cccc4F)=N3)cc2)cn1` (stereo not drawn) [drawing 295], in data set [4], the “Kill rate in % after 7 d” value came out at 98%. In the case of `Fc1cccc(F)c1C1=NC(c2ccc(-c3ccc(OCC(F)(F)F)nc3)cc2)CC1` (stereo not drawn) [drawing 273], the “Kill rate in % after 7 d” value in data set [2] is listed as 100%.

Consider `Fc1cccc(F)c1C1=NC(c2ccc(-c3ccc(OCC(F)(F)F)nc3)cc2)CC1` (stereo not drawn) [drawing 277], for which the “Kill rate in % after 7 d” value in data set [1] (setting [7]) was 100%. With `CC1CC(C)CN(c2ncc(-c3ccc(C4CCC(c5c(F)cccc5F)=N4)cc3)cn2)C1` (stereo not drawn) [drawing 292], in data set [3], the pest or weed control at 1000 ppm is 100%. For `Fc1cccc(F)c1C1=NC(c2ccc(-c3ccc(C(F)(F)F)cn3)cc2)CC1` (stereo not drawn) [drawing 266], the “Kill rate in % after 7 d” value in data set [5] (setting [8]) worked out at 100%. As for `Fc1cccc(F)c1C1=NC(c2ccc(-c3ccc(OCC(F)(F)F)nc3)cc2)CC1` (stereo not drawn) [drawing 267], the “Kill rate in % after 7 d” value in data set [5] (setting [7]) is given as 100%. As to `CC(C)Sc1ncc(-c2ccc(C3CCC(c4c(F)cccc4F)=N3)cc2)cn1` (stereo not drawn) [drawing 272], the “Kill rate in % after 7 d” value in data set [2] worked out at 100%.

Take `O=C1CCCN1c1ccc(-c2ccc(C3CCC(c4c(F)cccc4F)=N3)cc2)nn1` (stereo not drawn) [drawing 285]: the pest or weed control at 500 ppm in data set [3] was determined as 100%. Consider `Fc1cccc(F)c1C1=NC(c2ccc(-c3ccc(Cl)nc3)cc2)CC1` (stereo not drawn) [drawing 299], for which the “Kill rate in % after 7 d” value in data set [4] is given as 98%. Turning to `CCCN(CC)c1ncc(-c2ccc(C3CCC(c4c(F)cccc4F)=N3)cc2)cn1` (stereo not drawn) [drawing 274], in data set [2], the “Kill rate in % after 7 d” value came out at 100%. Regarding `CC(C)Sc1ccc(-c2ccc(C3CCC(c4c(F)cccc4F)=N3)cc2)nn1` (stereo not drawn) [drawing 283], the pest or weed control at 1000 ppm in data set [3] stood at 100%. As for `CC(C)Oc1ncc(-c2ccc(C3CCC(c4c(F)cccc4F)=N3)cc2)cn1` (stereo not drawn) [drawing 265], in data set [5] (setting [8]), the “Kill rate in % after 7 d” value is given as 100%. With `Fc1cccc(F)c1C1=NC(c2ccc(-c3cnc(N4CCCCC4)nc3)cc2)CC1` (stereo not drawn) [drawing 276], the “Kill rate in % after 7 d” value in data set [2] was found to be 100%. Consider `Fc1cccc(F)c1C1=NC(c2ccc(-c3ccc(OCC(F)(F)F)nn3)cc2)CC1` (stereo not drawn) [drawing 264], for which the “Kill rate in % after 7 d” value in data set [5] (setting [8]) came to 100%. For the compound `Fc1cccc(F)c1C1=NC(c2ccc(-c3cnc(N4CCOCC4)nc3)cc2)CC1` (stereo not drawn) [drawing 284], the pest or weed control at 1000 ppm in data set [3] came out at 100%.

On to `CN(C)c1ncc(-c2ccc(C3CCC(c4c(F)cccc4F)=N3)cc2)cn1` (stereo not drawn) [drawing 281], for which the pest or weed control at 1000 ppm in data set [3] turned out to be 100%. In the case of `CCCCCCN(C(=O)C(C)(C)C)c1ccc(-c2ccc(C3CCC(c4c(F)cccc4F)=N3)cc2)nn1` (stereo not drawn) [drawing 290], the pest or weed control at 1000 ppm in data set [3] was 100%. On the same count and under the same terms, then `CC(C)COc1ncc(-c2ccc(C3CCC(c4c(F)cccc4F)=N3)cc2)cn1` (stereo not drawn) [drawing 291], with 100%. Turning to `CCCCN(CCCC)c1ccc(-c2ccc(C3CCC(c4c(F)cccc4F)=N3)cc2)nn1` (stereo not drawn) [drawing 287], the pest or weed control at 500 ppm in data set [3] turned out to be 100%. For `Fc1cccc(F)c1C1=NC(c2ccc(-c3ccc(Cl)cn3)cc2)CC1` (stereo not drawn) [drawing 294], the “Kill rate in % after 7 d” value in data set [4] came to 98%. On the same count and under the same terms, the result for `CC(C)Oc1ncc(-c2ccc(C3CCC(c4c(F)cccc4F)=N3)cc2)cn1` (stereo not drawn) [drawing 296] reads 98%.

Consider `CCCN(CC)c1ncc(-c2ccc(C3CCC(c4c(F)cccc4F)=N3)cc2)cn1` (stereo not drawn) [drawing 268], for which the “Kill rate in % after 7 d” value in data set [5] (setting [8]) is on record as 100%. Regarding `Fc1cccc(F)c1C1=NC(c2ccc(-c3ccc(N4CCOCC4)nc3)cc2)CC1` (stereo not drawn) [drawing 269], the “Kill rate in % after 7 d” value in data set [5] (setting [7]) is listed as 100%. On to `CC(C)Oc1ncc(-c2ccc(C3CCC(c4c(F)cccc4F)=N3)cc2)cn1` (stereo not drawn) [drawing 270], for which the “Kill rate in % after 7 d” value in data set [2] is on record as 100%. `CC(C)Oc1ccc(-c2ccc(C3CCC(c4c(F)cccc4F)=N3)cc2)nn1` (stereo not drawn) [drawing 282]: the pest or weed control at 1000 ppm in data set [3] worked out at 100%. For `Fc1cccc(F)c1C1=NC(c2ccc(-c3cncnc3)cc2)CC1` (stereo not drawn) [drawing 293], the “Kill rate in % after 7 d” value in data set [4] was 98%. In the case of `CCCCCCC(=O)N(c1ccc(-c2ccc(C3CCC(c4c(F)cccc4F)=N3)cc2)nn1)C1CCCC1` (stereo not drawn) [drawing 289], the pest or weed control at 1000 ppm in data set [3] was 100%. On to `CCCCCCN(CCCCCC)c1ccc(-c2ccc(C3CCC(c4c(F)cccc4F)=N3)cc2)nn1` (stereo not drawn), for which the pest or weed control at 1000 ppm in data set [3] worked out at 100%. As to `Fc1cccc(F)c1C1=NC(c2ccc(-c3ccc(Cl)cn3)cc2)CC1` (stereo not drawn) [drawing 280], in data set [3], the pest or weed control at 1000 ppm amounted to 100%.

Regarding `CCCN(CC)c1ncc(-c2ccc(C3CCC(c4c(F)cccc4F)=N3)cc2)cn1` (stereo not drawn) [drawing 278], the “Kill rate in % after 7 d” value in data set [1] (setting [7]) was determined as 100%.

For the compound `CC(C)Sc1ccc(-c2ccc(C3CCC(c4c(F)cccc4F)=N3)cc2)nn1` (stereo not drawn) [drawing 297], in data set [4], the “Kill rate in % after 7 d” value was determined as 98%. Still for that read-out and setting: the result for `Fc1cccc(F)c1C1=NC(c2ccc(-c3cnc(N4CCOCC4)nc3)cc2)CC1` (stereo not drawn) [drawing 298] reads 98%. For `CCOC(=O)N1CCN(c2ccc(-c3ccc(C4CCC(c5c(F)cccc5F)=N4)cc3)nn2)CC1` (stereo not drawn) [Example 70], in data set [6], the chromatographic logP amounted to 1.63. Same read-out and setting: the result for `CCC1CCN(c2ncc(-c3ccc(C4CCC(c5c(F)cccc5F)=N4)cc3)cn2)CC1` (stereo not drawn) [Example 121] reads 4.58.

In turn, `CN(C(=O)C(C)(C)C)c1ccc(-c2ccc(C3CCC(c4c(F)cccc4F)=N3)cc2)nn1` (stereo not drawn) [Example 56] displayed a chromatographic logP in data set [6] of 2.29. Still for that read-out and setting: the result for `CCCCCCC(=O)N(c1ccc(-c2ccc(C3CCC(c4c(F)cccc4F)=N3)cc2)nn1)C1CCCCC1` (stereo not drawn) [Example 59] reads 4.35.

For `CC1CC(C)CN(c2ncc(-c3ccc(C4CCC(c5c(F)cccc5F)=N4)cc3)cn2)C1` (stereo not drawn) [drawing 275], the “Kill rate in % after 7 d” value in data set [2] is given as 100%. Compound `CCCNc1ccc(-c2ccc(C3CCC(c4c(F)cccc4F)=N3)cc2)nn1` (stereo not drawn) [Example 49] registered a chromatographic logP in data set [6] of 1.26. Regarding `CCON=C1CCN(c2ncc(-c3ccc(C4CCC(c5c(F)cccc5F)=N4)cc3)cn2)CC1` (stereo not drawn) [Example 216], the chromatographic logP in data set [6] turned out to be 3.1. On the same count and under the same terms, the result for `Fc1cccc(F)c1C1=N[C@@H](c2ccc(-c3ccc(C(F)(F)F)cn3)cc2)CC1` [Example 94] reads 3.28; that for `CC(=O)N(C)c1ccc(-c2ccc(C3CCC(c4c(F)cccc4F)=N3)cc2)nn1` (stereo not drawn) [Example 67], 1.48.

In turn, `FC(F)Sc1ncc(-c2ccc(C3CCC(c4ccccc4Cl)=N3)cc2)cn1` (stereo not drawn) [Example 93] came in with a chromatographic logP in data set [6] of 3.38.

As a reminder, the chromatographic logP is a lipophilicity value derived from retention on a column.
